Measurements reported in article PMC8078842 (PLoS Neglected Tropical Diseases, 2021).

What was measured:
[1] = system: Adrenergic, Alpha 1, Non-selective; assay: CNS side effect panel, [^3H]7-MeOxy-Prazosin; type: binding; details: pentamidine 1.0E^-5 M
Adenosine, Non-selective = assay: CNS side effect panel, [^3H]NECA; type: binding; details: pentamidine 1.0E^-5 M
Endothelin, ET-B (h) = biological target: T1, Endothelin, ET-B (h) (Homo sapiens, UniProt P24530); assay: CNS side effect panel, [^125I]-Endothelin-1; type: binding; details: pentamidine 1.0E^-5 M
T1 construct: purchased Perkin-Elmer Science Discovery Systems (NovaScreen), customised CNS screening panel
T1 sequence (P24530 27-442): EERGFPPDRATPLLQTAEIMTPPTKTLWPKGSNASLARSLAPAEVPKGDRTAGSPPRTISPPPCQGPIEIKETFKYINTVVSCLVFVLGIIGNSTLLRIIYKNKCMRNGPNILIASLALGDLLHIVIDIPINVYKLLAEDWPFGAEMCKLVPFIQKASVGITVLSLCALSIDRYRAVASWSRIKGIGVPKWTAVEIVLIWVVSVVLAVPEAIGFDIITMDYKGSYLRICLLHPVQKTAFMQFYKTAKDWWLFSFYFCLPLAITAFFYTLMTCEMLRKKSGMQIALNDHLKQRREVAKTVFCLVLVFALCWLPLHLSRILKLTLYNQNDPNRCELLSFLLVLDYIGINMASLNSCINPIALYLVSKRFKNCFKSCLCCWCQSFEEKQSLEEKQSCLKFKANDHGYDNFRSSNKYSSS

[2] = system: Cholecystokinin, CCK2 (CCKB); assay: CNS side effect panel, [^125I]CCK-8; type: binding; details: pentamidine 1.0E^-5 M
Esterase, Acetylcholine = assay: CNS side effect panel, Acetylthiocholine; type: biochemical; details: pentamidine 1.0E^-5 M
[3] = biological target: Muscarinic, Non-selective, Central; assay: CNS side effect panel, [^3H]QNB; type: binding
Histamine, H2 = Histamine, H2 (Cavia porcellus, UniProt P47747); assay: CNS side effect panel, [^125I]-Aminopotentidine; type: binding
Chain of Histamine, H2 (P47747 whole entry): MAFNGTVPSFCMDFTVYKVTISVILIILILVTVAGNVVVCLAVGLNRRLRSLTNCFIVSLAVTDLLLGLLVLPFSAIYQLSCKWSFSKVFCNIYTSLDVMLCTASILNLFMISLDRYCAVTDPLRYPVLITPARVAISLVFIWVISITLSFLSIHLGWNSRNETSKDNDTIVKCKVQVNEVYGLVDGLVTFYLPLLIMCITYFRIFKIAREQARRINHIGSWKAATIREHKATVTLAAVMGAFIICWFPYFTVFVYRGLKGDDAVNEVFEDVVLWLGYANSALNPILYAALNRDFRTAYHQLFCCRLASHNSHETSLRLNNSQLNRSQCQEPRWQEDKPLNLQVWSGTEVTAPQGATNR

[4] = system: fibrinogen binding to GP11b/IIIa; details: Inhibits fibrinogen binding to GP11b/IIIa; cited from earlier work
Opioid, Non-selective = assay: CNS side effect panel, [^3H]Naloxone; type: binding
[5] = system: Adrenergic, Beta, Non-selective; assay: CNS side effect panel, [^3H]DHA; type: binding; details: pentamidine 1.0E^-5 M
[6] = biological target: cloned hKir2.1 potassium channels (Homo sapiens, UniProt P63252); assay: cell-based
Chain of cloned hKir2.1 potassium channels (P63252 whole entry): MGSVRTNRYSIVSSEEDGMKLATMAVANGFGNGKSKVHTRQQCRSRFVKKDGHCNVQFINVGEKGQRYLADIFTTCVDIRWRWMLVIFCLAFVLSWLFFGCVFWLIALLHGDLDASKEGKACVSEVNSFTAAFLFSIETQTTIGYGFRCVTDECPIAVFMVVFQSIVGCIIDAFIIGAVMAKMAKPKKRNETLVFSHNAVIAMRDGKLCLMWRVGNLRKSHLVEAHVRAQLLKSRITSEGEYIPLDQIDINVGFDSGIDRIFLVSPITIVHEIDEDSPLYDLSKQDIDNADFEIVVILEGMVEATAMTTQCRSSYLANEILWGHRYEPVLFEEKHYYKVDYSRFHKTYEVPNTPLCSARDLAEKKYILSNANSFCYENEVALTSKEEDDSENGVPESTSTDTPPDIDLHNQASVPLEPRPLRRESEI

[7] = system: Acid sensing ion channels (ASIC); details: Potency 1b>3>2a>or = 1a; cited from earlier work
Sigma, Non-selective = assay: CNS side effect panel, [^3H]DTG; type: binding; details: pentamidine 1.0E^-5 M
PRL phosphatases = details: Oncology target; cited from earlier work
Serotonin, Non-selective = assay: CNS side effect panel, [^3H] LSD; type: binding; details: pentamidine 1.0E^-5 M
[8] = biological target: T2, Opioid, Orphanin, ORL1 (h) (Homo sapiens, UniProt P41146); assay: CNS side effect panel, [^3H] Nociceptin; type: binding; details: pentamidine 1.0E^-5 M
T2 construct: purchased Perkin-Elmer Science Discovery Systems (NovaScreen), customised CNS screening panel
T2 sequence (P41146 whole entry): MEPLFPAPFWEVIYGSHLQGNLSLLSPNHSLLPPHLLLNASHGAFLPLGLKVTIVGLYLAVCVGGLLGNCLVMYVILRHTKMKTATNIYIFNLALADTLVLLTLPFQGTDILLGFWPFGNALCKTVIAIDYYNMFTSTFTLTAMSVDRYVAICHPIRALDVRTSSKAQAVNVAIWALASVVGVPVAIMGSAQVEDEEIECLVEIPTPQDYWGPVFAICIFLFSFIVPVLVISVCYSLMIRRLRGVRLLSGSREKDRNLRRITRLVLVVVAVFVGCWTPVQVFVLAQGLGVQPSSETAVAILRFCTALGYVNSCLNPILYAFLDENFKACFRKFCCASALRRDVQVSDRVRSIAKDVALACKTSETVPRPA

Rat NMDA receptor = details: Rat brain membrane 3H-dizocilpine binding; cited from earlier work
[9] = system: Glutamate, AMPA Site (Ionotropic); assay: CNS side effect panel, [^3H]AMPA; type: binding; details: pentamidine 1.0E^-5 M
[10] = biological target: Imidazoline, I2 [central]; assay: CNS side effect panel, [^3H]2-BFI; type: binding
[11] = system: Adrenergic, Alpha 2, Non-selective; assay: CNS side effect panel, [^3H]RX821002; type: binding; details: pentamidine 1.0E^-5 M
Imidazoline2 receptor = details: 3H-idazoxan binding; cited from earlier work
[12] = system: Decarboxylase, Glutamic Acid; assay: CNS side effect panel, [^14C]Glutamic acid; type: biochemical; details: pentamidine 1.0E^-5 M
P-gp (human MDR1) = assay: in vitro; details: dog
[13] = system: GABA A, BDZ, alpha 1 site; assay: CNS side effect panel, [^3H]Flunitrazepam; type: binding; details: pentamidine 1.0E^-5 M
Angiotensin II, AT2 = assay: CNS side effect panel, [^125I]Tyr4-Angiotensin II; type: binding; details: pentamidine 1.0E^-5 M
[14] = system: NMDA (Ionotropic) glutamate receptor; details: Voltage dependent; cited from earlier work
[15] = system: Corticotropin Releasing Factor, Non-selective; assay: CNS side effect panel, [^125I]Tyr0-oCRF; type: binding; details: pentamidine 1.0E^-5 M
[16] = system: Nicotinic, Neuronal (a-BnTx insensitive); assay: CNS side effect panel, [^3H]Epibatidine; type: binding; details: pentamidine 1.0E^-5 M
GABA A, Agonist Site = assay: CNS side effect panel, [^3H]GABA; type: binding; details: pentamidine 1.0E^-5 M
[17] = system: Glycine, Strychnine-sensitive; assay: CNS side effect panel, [^3H]Strychnine; type: binding; details: pentamidine 1.0E^-5 M
Dopamine, D1 (h) = biological target: T3, Dopamine, D1 (h) (Homo sapiens, UniProt P21728); assay: CNS side effect panel, [^3H]-SCH23390; type: binding; details: pentamidine 1.0E^-5 M
T3 construct: purchased Perkin-Elmer Science Discovery Systems (NovaScreen), customised CNS screening panel
T3 sequence (P21728 whole entry): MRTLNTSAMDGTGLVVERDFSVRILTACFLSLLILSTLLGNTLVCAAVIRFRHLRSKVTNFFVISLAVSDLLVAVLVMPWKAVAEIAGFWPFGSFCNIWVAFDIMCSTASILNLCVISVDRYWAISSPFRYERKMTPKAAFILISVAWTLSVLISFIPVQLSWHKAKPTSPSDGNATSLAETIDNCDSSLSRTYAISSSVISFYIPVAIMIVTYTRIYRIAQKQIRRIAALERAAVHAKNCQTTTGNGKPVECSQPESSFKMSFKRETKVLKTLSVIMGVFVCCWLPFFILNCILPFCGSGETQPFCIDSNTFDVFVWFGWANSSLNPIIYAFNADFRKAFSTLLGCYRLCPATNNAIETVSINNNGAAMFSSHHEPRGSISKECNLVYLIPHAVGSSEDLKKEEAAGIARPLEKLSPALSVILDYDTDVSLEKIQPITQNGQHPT

[18] = biological target: T4, Oxidase, MAO-A-Peripheral (Rattus norvegicus, UniProt P21396); assay: CNS side effect panel, [^14C] - 5HT; type: biochemical
T4 sequence (P21396 1-526): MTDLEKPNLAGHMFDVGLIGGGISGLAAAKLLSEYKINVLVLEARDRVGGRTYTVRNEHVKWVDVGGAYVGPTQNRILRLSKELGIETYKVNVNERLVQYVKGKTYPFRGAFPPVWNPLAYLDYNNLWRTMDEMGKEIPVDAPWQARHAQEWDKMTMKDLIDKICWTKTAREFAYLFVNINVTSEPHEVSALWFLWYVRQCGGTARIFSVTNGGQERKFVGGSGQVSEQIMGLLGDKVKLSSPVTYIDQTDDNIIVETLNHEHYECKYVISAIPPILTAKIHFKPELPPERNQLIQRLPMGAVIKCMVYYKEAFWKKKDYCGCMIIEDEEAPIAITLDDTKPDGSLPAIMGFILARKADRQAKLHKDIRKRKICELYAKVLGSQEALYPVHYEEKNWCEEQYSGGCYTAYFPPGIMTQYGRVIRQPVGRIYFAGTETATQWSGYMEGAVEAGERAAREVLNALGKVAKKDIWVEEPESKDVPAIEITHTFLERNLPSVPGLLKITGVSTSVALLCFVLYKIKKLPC

Delta2glutamate receptor = details: Voltage independent; cited from earlier work
[19] = In vivo pharmacokinetic brain distribution with [^3H(G)]pentamidine; set-up: species or system BALB/c mice; details: 2 hours post-injection i.v., corrected for vascular/[^14C]sucrose space
[20] = previously published data; cited from earlier work

With `N=C(N)c1ccc(OCCCCCOc2ccc(C(=N)N)cc2)cc1` [Pentamidine, 1,5-bis-4ρ-amidinophenoxypentane] the “Percent Inhibition” value [1] was 100.77%, the “Percent Inhibition” value (Adenosine, Non-selective) was 1.28% and the “Percent Inhibition” value (Endothelin, ET-B (h)) was 4.50%. The “Percent Inhibition” value [2] was 0.09%, the “Percent Inhibition” value (Esterase, Acetylcholine) was 23.21% and the Ki ([3]; Muscarinic (central), concentration-response) was 281 nM. For the same compound, the “Percent Inhibition” value ([3]; pentamidine 1.0E^-5 M) was 90.90%, the Ki (Histamine, H2) was 7210 nM and the “Percent Inhibition” value (Histamine, H2; pentamidine 1.0E^-5 M) was 71.07%. The Affinity [4] was 1.1 µM, the Ki (Opioid, Non-selective; Opioid, concentration-response) was 1410 nM and the “Percent Inhibition” value (Opioid, Non-selective; pentamidine 1.0E^-5 M) was 76.00%. The “Percent Inhibition” value [5] was 55.37%, the IC50 [6] was greater than 10000 nM and the Affinity [7] was 38 µM. The “Percent Inhibition” value (Sigma, Non-selective) was 6.50%, the Affinity (PRL phosphatases) was 3 µM and the “Percent Inhibition” value (Serotonin, Non-selective) was 0.09%. The “Percent Inhibition” value [8] was 36.62%, the Affinity (Rat NMDA receptor) was 1.8 µM and the “Percent Inhibition” value [9] was 1.34%. The Ki ([10]; Imidazoline 1_2, concentration-response) was 1 nM, the “Percent Inhibition” value ([10]; pentamidine 1.0E^-5 M) was 101.03% and the “Percent Inhibition” value [11] was 56.14%. The Affinity (Imidazoline2 receptor) was 0.014 µM, the “Percent Inhibition” value [12] was -1.41% and the Papp B→A at 1 h, 10 µM (P-gp (human MDR1); MDCK-MDR1, pH 7.4, Papp B2A Replicate 1) was 0.336 ×10⁻⁶ cm/s. The Papp B→A at 1 h, 10 µM (P-gp (human MDR1); MDCK-MDR1, pH 7.4, Papp B2A Replicate 2) was 0.357 ×10⁻⁶ cm/s, the Papp B→A at 1 h, 20 µM (P-gp (human MDR1); MDCK-MDR1, pH 7.4, Papp basal to apical) was 0.418 ×10⁻⁶ cm/s and the “Percent Inhibition” value [13] was 20.54%. The “Percent Inhibition” value (Angiotensin II, AT2) was 2.96%, the Affinity [14] was 0.2 µM and the “Percent Inhibition” value [15] was 17.05%. For the same compound, the “Percent Inhibition” value [16] was 10.87%, the “Percent Inhibition” value (GABA A, Agonist Site) was 31.10% and the “Percent Inhibition” value [17] was -0.22%. For the same compound, the “Percent Inhibition” value (Dopamine, D1 (h)) was 27.48%, the Ki ([18]; Monoamine oxidase A, concentration-response) was 217 nM and the “Percent Inhibition” value ([18]; pentamidine 1.0E^-5 M) was 89.42%. The Affinity (Delta2glutamate receptor) was 5 µM.

With [^3H(G)]pentamidine the “RTISSUE/PLASMA% (mean±SEM) Cerebellum” value [19] was 204.02 (± 35.28) %, the “RTISSUE/PLASMA% (mean±SEM) Choroid plexus” value [19] was 24666.66 (± 4928) % and the “RTISSUE/PLASMA% (mean±SEM) Homogenate” value [19] was 249.41 (± 35.59) %. The “RTISSUE/PLASMA% (mean±SEM) Left brain” value [19] was 152.29 (± 33.48) %, the “RTISSUE/PLASMA% (mean±SEM) Midbrain” value [19] was 181.18 (± 45.30) % and the “RTISSUE/PLASMA% (mean±SEM) Pellet” value [19] was 479.72 (± 72.50) %. The “RTISSUE/PLASMA% (mean±SEM) Pituitary gland” value [19] was 15053.41 (± 3598) %, the “RTISSUE/PLASMA% (mean±SEM) Right brain” value [19] was 115.52 (± 12.46) % and the “RTISSUE/PLASMA% (mean±SEM) Supernatant” value [19] was 123.35 (± 28.45) %. The “Accumulation corrected for vascular space, hippocampus” value [20] was 4.3%, the “Accumulation corrected for vascular space, hypothalamus” value [20] was 7.6% and the “Accumulation corrected for vascular space, pons” value [20] was 8.2%.
